Test results as given in paper PMC13083723 (Patterns, 2026).
Where “and” joins values, the source holds several entries; their conditions need not be identical. Equal entries are not always repeated. Structures can show the parent of a compound that is named as a salt. Where two headings read alike, the source gives them in different places.

Assays:
[1] = cited from earlier work
A549-ACE2 cells = assay: cells; format: cell-based; settings: A549-ACE2, 24 h, read-out: PLD_Effect(%) A549-ACE2
Vero-E6 cells = assay: cells; format: cell-based; settings: Chlorocebus sabaeus
SARS-CoV-2 = settings: 10 µM; cited from earlier work
[2] = value is the negative log10 of mol/L
[3] = Vero C1008, 24 h, read-out: PLD_Effect(%) VERO-E6

| SMILES | IC50 ([1]; read-out: IC50 (value)) [nM] | pchembl_value (IC50) [1, 2] | activation at 10 µM (A549-ACE2 cells) [%] | activation at 10 µM (Vero-E6 cells; [3]) [%] | other results |
| --- | --- | --- | --- | --- | --- |
| CN1CCCC(n2nc(Cc3ccc(Cl)cc3)c3ccccc3c2=O)CC1 (centres unmarked) [AZELASTINE HYDROCHLORIDE] | 1000 | 6.00 | 57.3 | 57.2 | pIC50 (value) [1]: 7.0; pchembl_value (AC50) [1]: 7.62; pchembl_value (pIC50) [1]: 7.00; AC50 ([1]; read-out: AC50 (value)): 24 nM |
| CCCOC(C(=O)OC1CCN(C)CC1)(c1ccccc1)c1ccccc1 [Propiverine Hydrochloride] | – | – | 102 | 63.8 | pchembl_value (AC50) [1]: 6.08 and 6.12; AC50 ([1]; read-out: AC50 (value)): 830 nM and 750 nM |
| COc1cc2c(NC3CCN(C(C)C)CC3)nc(C3CCCCC3)nc2cc1OCCCN1CCCC1 [UNC0638] | – | – | 112 | 60.7 | pchembl_value (type IC50), Histone-lysine N-methyltransferase, H3 lysine-9 specific 3 [1]: 7.26 and 7.82 and 7.92; pchembl_value (type IC50), Histone-lysine N-methyltransferase, H3 lysine-9 specific 5 [1]: 7.72; pchembl_value (type Ki), Histone-lysine N-methyltransferase, H3 lysine-9 specific 3 [1]: 8.43 and 7.75; IC50 ([1]; read-out: IC50 (value), Histone-lysine N-methyltransferase, H3 lysine-9 specific 3): 55 nM and 15 nM; IC50 ([1]; read-out: IC50 (value), Histone-lysine N-methyltransferase, H3 lysine-9 specific 5): 19 nM; IC50 ([1]; read-out: IC50 (value), Lysine-specific histone demethylase 1): 180 nM; Ki ([1]; read-out: Ki (value), Histone-lysine N-methyltransferase, H3 lysine-9 specific 3): 3.7 nM; pchembl_value (type IC50), Lysine-specific histone demethylase 1 [1, 2]: 6.75 |
| CC(C)c1cnn2c(NCc3ccccc3)cc(NCCCCCCN)nc12 [BS-181] | 21 | – | 63.8 | 53.6 | – |
| CN1CCN(C(=O)CN[C@@H]2C[C@H]2c2ccc(OCc3ccccc3)cc2)CC1 [RN-1] | – | 8.51 and 6.29 | 70.6 | 87.7 | – |
| O=S(=O)(NCCNC/C=C/c1ccc(Br)cc1)c1cccc2cnccc12 [H-89] | 590 | – | 98.9 | 60.8 | Kd ([1]; read-out: Kd (value)): 24 nM; pchembl_value (Kd) [1, 2]: 7.62 |
| C=CCN(C)CCCCCCOc1ccc(C(=O)c2ccc(Br)cc2)c(F)c1 [Ro 48-8071 (fumarate)] | – | – | 102 | 92.9 | Log IC50 (value) [1]: -8.19; pIC50 (value) [1]: 6.65; pchembl_value (Log IC50) [1]: 8.19; pchembl_value (pIC50) [1]: 6.65 |
| Cn1ncc(Cl)c1-c1cc(C(=O)N[C@H](CN)Cc2cccc(F)c2)sc1Cl [Afuresertib] | – | 10.10 and 8.70 and 8.59 | 77.1 | 69.5 | Ki ([1]; read-out: Ki (value)): 0.08 nM; pchembl_value (Ki) [1, 2]: 10.10 |
| CCCCCCCCC(=O)N[C@H](CN1CCCC1)[C@H](O)c1ccc2c(c1)OCCO2 [Genz-123346 (free base)] | 9 | 8.05 | 81.6 | 63.4 | – |
| CN1CCCN(C(c2ccccc2)c2ccc(Cl)cc2)CC1 (centres unmarked) [Homochlorcyclizine?2HCl] | – | – | 69.6 | 82.5 | pchembl_value (AC50) [1]: 6.64 and 7.14 and 6.83 |
| CNCCC(Oc1ccc(C(F)(F)F)cc1)c1ccccc1 (centres unmarked) [FLUOXETINE HYDROCHLORIDE] | – | – | 109 | 54.3 | pchembl_value (AC50) [1]: 7.03 and 7.53 |
| CN1CCC(Nc2ncc3ncnc(Nc4ccc(F)c(Cl)c4)c3n2)CC1 [BiBX-1382, reference compound] | – | – | – | – | activation at 5 µM (Vero-E6 cells; Vero C1008, 24 h, read-out: PLD Effect in % 5 µM): 85.8%; activation at 10 µM (Vero-E6 cells; Vero C1008, 24 h, read-out: PLD Effect in % 10 µM): 75.5%; activation at 20 µM (Vero-E6 cells; Vero C1008, 24 h, read-out: PLD Effect in % 20 µM): -0.64%; EC50 (Vero-E6 cells; Vero C1008, read-out: PLD EC50 µM): 0.61 µM; Vero-E6 CPE inhibition % (SARS-CoV-2): 0.28% |
| N[C@H]1CC[C@H](N[C@@H]2C[C@H]2c2ccccc2)CC1 [ORY-1001 (RG-6016) 2HCl] | – | – | 98.4 | 65.7 | Ki [1]: 50 nM; pchembl_value [1]: 9.85 and 7.30 and 7.48 |
| C[C@H](Oc1cc(-c2cnn(C3CCNCC3)c2)cnc1N)c1c(Cl)ccc(F)c1Cl [(S)-crizotinib] | 680 | 6.86 and 6.17 | 102 | 70.2 | Ki ([1]; read-out: Ki (value)): 161 nM; pchembl_value (Kd) [1, 2]: 7.43 and 6.28 and 7.41; pchembl_value (Ki) [1, 2]: 6.79 |
| O=C(NCCN1CCC2(CC1)C(=O)NCN2c1cccc(F)c1)c1ccc2ccccc2c1 [VU-0364739] | 20 | 7.70 | 113 | 55.1 | – |
| C[C@@H]1CCCN1CCc1cc2cc(-c3ccc(C#N)cc3)ccc2o1 [ABT 239 tartrate] | – | – | 67.4 | 66.8 | Ki ([1]; read-out: Ki (value)): 0.45 nM |
| CC(CN1c2ccccc2Sc2ccccc21)N(C)C (centres unmarked) [PROMETHAZINE HYDROCHLORIDE] | – | – | 96.5 | 55.4 | AC50 [1]: 30 nM |
| C[C@H](N)Cn1ccc2cc(F)c(Cl)cc21 [Ro-60-0175 fumarate] | – | – | 82.7 | 50.7 | – |
| C[C@@H](O[C@H]1OCCN(Cc2nn[nH]c2CN(C)C)[C@H]1c1ccc(F)cc1)c1cc(C(F)(F)F)cc(C(F)(F)F)c1 [L-760735] | – | – | 107 | 71.2 | – |
| CN(C)CCCOc1nn(Cc2ccccc2)c2ccccc12 [BENZYDAMINE HYDROCHLORIDE] | – | – | 65.2 | 51.2 | – |
